BigSolDB 2.1

[NH3+]O.[NH3+]O.[O-]n1nnnc1-c1nnnn1[O-]
solubility (mole fraction)
Details | in DMF | in DMSO | in ethanol | in ethyl acetate | in formic acid | in toluene | in water
293.15 K | 6.38e-05 | 0.00122 | 3.87e-06 | 1.93e-06 | 0.000213 | 1.85e-05 | 2.42e-05
298.15 K | 7.18e-05 | 0.00131 | 4.82e-06 | 2.16e-06 | 0.000231 | 2.2e-05 | 2.83e-05
303.15 K | 9.56e-05 | 0.00149 | 5.92e-06 | 2.37e-06 | 0.00025 | 2.44e-05 | 3.29e-05
308.15 K | 0.000142 | 0.00159 | 7.19e-06 | 2.72e-06 | 0.00028 | 2.6e-05 | 3.59e-05
313.15 K | 0.000183 | 0.00179 | 8.16e-06 | 3.16e-06 | 0.000302 | 2.89e-05 | 4.17e-05
318.15 K | 0.000225 | 0.00191 | 9.64e-06 | 3.56e-06 | 0.000347 | 3.24e-05 | 4.84e-05
323.15 K | 0.000269 | 0.00211 | 1.21e-05 | 3.92e-06 | 0.000392 | 3.69e-05 | 5.5e-05
